Measurements: patent publication US20220356147A1, “COMPOUNDS AND METHODS FOR POTENTIATING COLISTIN ACTIVITY” (University of Notre Dame du Lac, priority 2019, published 2022)

These compounds were tested on A. baumannii 4106 (AB4106) (assay: Broth microdilution, colistin potentiation). Conditions: compound at 5 μM.
Assay type: cell-based
Description: (§1) Broth microdilution method for measurement of colistin potentiation: Bacteria were cultured for 4 to 6 hours in CAMHB and diluted to 1.04×10^6 CFU/mL for AB 4106 and 1.96×10^6 CFU/mL for KP B9 in fresh CAMHB. To aliquots (4 mL) was added compound from stock solutions in DMSO. One aliquot was not dosed to allow measurement of the colistin MIC in the absence of compound. A 1 mL aliquot of each sample was dosed with colistin, and from this 200 μL was dispensed into the first row of a 96-well microtiter plate in which all but the final row of subsequent wells was prefilled with 100 μL of the corresponding compound dosed bacterial suspension The final row was filled with media to act as a sterility control and blank. Row one wells were mixed 6-7 times, then, 100 μL was withdrawn and transferred to row two. Row two wells were mixed 6-7 times followed by a 100 μL transfer from row two to row three. This procedure was used to serially dilute the rest of the rows of the microtiter plate, excluding the last prefilled row, which was used to measure growth in the presence of compound alone. Plates were then sealed with GLAD
(§2) Press'n Seal and incubated under stationary conditions at 37° C. […] MIC values were determined as the minimum concentration required to achieve 90% growth inhibition compared to growth in untreated wells.

Structure (SMILES) | Colistin potentiation activity in words, AB4106
O=C(Nc1ccc(F)c([N+](=O)[O-])c1)c1cc(Cl)ccc1O [Compound 35, 5-chloro-N-(4-fluoro-3-nitrophenyl)-2-hydroxybenzamide] | Neither compound displayed significant activity

Same assay, conditions: compound at 5 μM; colistin alone 2048 μg/mL

Structure (SMILES) | Colistin MIC fold reduction, AB 4106 [fold]
Cc1cc(C)cc(NC(=O)c2cc(F)ccc2O)c1 [Compound 44, N-(3,5-dimethylphenyl)-5-fluoro-2-hydroxybenzamide] | ≤ 16
O=C(Nc1ccccc1Cl)c1cc(Cl)ccc1O [Compound 39] | 256
O=C(Nc1cc(C(F)(F)F)ccc1C(F)(F)F)c1cc(Cl)cc(Cl)c1O [Compound 61, N-(2,5-bis(trifluoromethyl)phenyl)-3,5-dichloro-2-hydroxybenzamide] | ≤ 16
O=C(Nc1cc(Cl)c(Br)c(Cl)c1)c1cc(Cl)ccc1O [Compound 41, N-(4-bromo-3,5-dichlorophenyl)-5-chloro-2-hydroxybenzamide] | 128
O=C(Nc1c(F)cccc1Br)c1cc(Cl)ccc1O [Compound 34] | ≤ 16
Cc1cc(C)cc(NC(=O)c2cc(Cl)cc(Cl)c2O)c1 [Compound 59, 3,5-dichloro-N-(3,5-dimethylphenyl)-2-hydroxybenzamide] | ≤ 16
O=C(Nc1ccc(F)cc1Br)c1cc(Cl)ccc1O [Compound 33] | 128
Cc1cc(C)cc(NC(=O)c2cc(I)ccc2O)c1 [Compound 53] | 256
Cc1cc(C)cc(NC(=O)c2cc(Br)ccc2O)c1 [Compound 48] | 128
Cc1cc(C)cc(NC(=O)c2cccc(Cl)c2O)c1 [Compound 58, 3-chloro-N-(3,5-dimethylphenyl)-2-hydroxybenzamide] | ≤ 16
Cc1cc(C)cc(NC(=O)c2ccc(C(F)(F)F)cc2O)c1 [Compound 57, N-(3,5-dimethylphenyl)-2-hydroxy-4-(trifluoromethyl)benzamide] | 256

Results, then the compound that gave them:

Colistin MIC fold reduction, AB 4106 [fold] | Structure (SMILES)
≤ 16 | O=C(Nc1cc(C(F)(F)F)cc(C(F)(F)F)c1)c1cccc(Cl)c1 [Compound 1]
32 | Cc1ccc(NC(=O)c2cc(Cl)ccc2O)cc1C(F)(F)F [Compound 30]
256 | COc1ccc(O)c(C(=O)Nc2cc(C(F)(F)F)cc(C(F)(F)F)c2)c1 [Compound 11]
32 | O=C(Nc1ccc(F)c([N+](=O)[O-])c1)c1cc(Cl)ccc1O [Compound 35, 5-chloro-N-(4-fluoro-3-nitrophenyl)-2-hydroxybenzamide]
256 | O=C(Nc1cc(F)cc(F)c1)c1cc(F)ccc1O [Compound 42]

What follows are compounds tested on AB 4106 (assay: Broth microdilution, standalone MIC of compound). Conditions: Acinetobacter baumannii, 16 h; standalone, no colistin; read-out: MIC of compound alone, AB 4106.
Assay type: cell-based, A. baumannii
Description: Broth microdilution method for the determination of minimum inhibitory concentrations: Bacteria were cultured for 4 to 6 hours in CAMHB and subcultured to 1.04×10^6 CFU/mL for AB 4106 and 1.96×10^6 CFU/mL for KP B9 in fresh CAMHB. To aliquots (1 mL) was added compound from stock solutions in DMSO, such that the compound concentration equaled the highest concentration tested. Samples were then dispensed (200 μL) into the first row of a 96-well microtiter plate in which all but the final row of subsequent wells were prefilled with 100 μL of the untreated bacterial subculture. The final row was filled with media to act as a sterility control and blank. Row one wells were mixed 6-7 times, then, 100 μL was withdrawn and transferred to row two. Row two wells were mixed 6-7 times followed by a 100 μL transfer from row two to row three. This procedure was used to serially dilute the rest of the rows of the microtiter plate, excluding the last prefilled row, which was used to measure growth in the absence of compound. Plates were then sealed with GLAD Press'n Seal and incubated under stationary conditions at 37 C. […] MIC values were determined as the minimum concentration required to achieve 90% growth inhibition compared to growth in untreated wells.

Structure (SMILES) | MIC [µM]
Cc1cc(C)cc(NC(=O)c2cc(F)ccc2O)c1 [Compound 44, N-(3,5-dimethylphenyl)-5-fluoro-2-hydroxybenzamide] | > 200
O=C(Nc1cc(C(F)(F)F)cc(C(F)(F)F)c1)c1cccc(O)c1 [Compound 7, N-(3,5-bis(trifluoromethyl)phenyl)-3-hydroxybenzamide] | > 200
O=C(Nc1ccccc1Cl)c1cc(Cl)ccc1O [Compound 39] | > 200
O=C(Nc1cc(C(F)(F)F)ccc1C(F)(F)F)c1cc(Cl)cc(Cl)c1O [Compound 61, N-(2,5-bis(trifluoromethyl)phenyl)-3,5-dichloro-2-hydroxybenzamide] | > 200
O=C(Nc1cc(Cl)c(Br)c(Cl)c1)c1cc(Cl)ccc1O [Compound 41, N-(4-bromo-3,5-dichlorophenyl)-5-chloro-2-hydroxybenzamide] | > 200
O=C(Nc1c(F)cccc1Br)c1cc(Cl)ccc1O [Compound 34] | > 200
Cc1cc(C)cc(NC(=O)c2cc(Cl)cc(Cl)c2O)c1 [Compound 59, 3,5-dichloro-N-(3,5-dimethylphenyl)-2-hydroxybenzamide] | > 200
O=C(Nc1ccc(F)cc1Br)c1cc(Cl)ccc1O [Compound 33] | > 200
Cc1cc(C)cc(NC(=O)c2cc(I)ccc2O)c1 [Compound 53] | > 200
Cc1cc(C)cc(NC(=O)c2cc(Br)ccc2O)c1 [Compound 48] | > 200
Cc1cc(C)cc(NC(=O)c2cccc(Cl)c2O)c1 [Compound 58, 3-chloro-N-(3,5-dimethylphenyl)-2-hydroxybenzamide] | > 200
Cc1cc(C)cc(NC(=O)c2ccc(C(F)(F)F)cc2O)c1 [Compound 57, N-(3,5-dimethylphenyl)-2-hydroxy-4-(trifluoromethyl)benzamide] | > 200

Continued, values first:

MIC [µM] | Structure (SMILES)
> 200 | O=C(Nc1cc(C(F)(F)F)cc(C(F)(F)F)c1)c1cccc(Cl)c1 [Compound 1]
> 200 | O=C(Nc1cc(C(F)(F)F)cc(C(F)(F)F)c1)c1cc(O)cc(Cl)c1 [Compound 3, N-(3,5-bis(trifluoromethyl)phenyl)-3-chloro-5-hydroxybenzamide]
> 200 | Cc1ccc(NC(=O)c2cc(Cl)ccc2O)cc1C(F)(F)F [Compound 30]
> 200 | COc1ccc(O)c(C(=O)Nc2cc(C(F)(F)F)cc(C(F)(F)F)c2)c1 [Compound 11]
> 200 | O=C(Nc1ccc(F)c([N+](=O)[O-])c1)c1cc(Cl)ccc1O [Compound 35, 5-chloro-N-(4-fluoro-3-nitrophenyl)-2-hydroxybenzamide]
200 | O=C(Nc1cc(F)cc(F)c1)c1cc(F)ccc1O [Compound 42]

What follows are compounds tested on AB4106 and KPB9 (assay: Initial screen for colistin resistance suppression, statements in words for both strains). Conditions: compound at 5 μM.
Assay type: cell-based, A. baumannii and K. pneumoniae
Description: as §1, §2

Structure (SMILES) | Colistin potentiation activity in words, compared to IMD-0354
O=C(Nc1cc(C(F)(F)F)cc(C(F)(F)F)c1)c1cccc(Cl)c1 [Compound 1] | abrogated activity
O=C(Nc1cc(C(F)(F)F)cc(C(F)(F)F)c1)c1cccc(O)c1 [Compound 7, N-(3,5-bis(trifluoromethyl)phenyl)-3-hydroxybenzamide] | devoid of activity
O=C(Nc1cc(C(F)(F)F)cc(C(F)(F)F)c1)c1cc(O)cc(Cl)c1 [Compound 3, N-(3,5-bis(trifluoromethyl)phenyl)-3-chloro-5-hydroxybenzamide] | essentially equipotent activity to IMD-0354
O=C(Nc1ccccc1Cl)c1cc(Cl)ccc1O [Compound 39] | less active
O=C(Nc1cc(C(F)(F)F)ccc1C(F)(F)F)c1cc(Cl)cc(Cl)c1O [Compound 61, N-(2,5-bis(trifluoromethyl)phenyl)-3,5-dichloro-2-hydroxybenzamide] | returned equipotent activity
